The subject of this data set is patients with at least moderate pain after extraction of 3 third molar teeth. In words: Study 1: phase 2 single-dose dental pain study, analgesic efficacy and tolerability of 3 FDCs of IBU/APAP vs IBU 400 mg and placebo. Format: in vivo, human. To be noted: single oral dose, IBU dose 400 mg. How it is done:
Study 1 was a phase 2, 12-hour, 5-arm, randomized, double-blind, parallel group, in-patient, placebo-controlled study designed to determine the overall analgesic efficacy of 3 different FDCs of IBU/APAP compared with IBU 400 mg and placebo.
All study procedures were in compliance with the ethical principles originating in or derived from the Declaration of Helsinki and with all International Council for Harmonization Good Clinical Practice Guidelines, as well as local regulatory requirements. All patients provided written informed consent. Eligible patients were healthy males or females aged 16-40 years, inclusive, who had undergone extraction of 3 third molar teeth (with at least 2 having been partial or complete bony mandibular impactions) and had developed at least moderate pain within 5 hours of the oral surgery. Other entry criteria included: use of only the following preoperative medications/anesthetics: topical benzocaine, a short-acting parenteral local anesthetic (mepivacaine or lidocaine) with or without a vasoconstrictor and/or nitrous oxide; no contraindications to the study or rescue medications; and being sufficiently reliable, cooperative, and intelligent to record the requested information on the analgesic questionnaire form.
Upon experiencing at least moderate pain, patients were randomized 1:3:3:3:3 to receive a single oral dose of placebo; IBU 400 mg; FDC IBU/APAP 200 mg/500 mg; FDC IBU/APAP 250 mg/500 mg; or FDC IBU/APAP 300 mg/500 mg.
Patients could receive 2 additional doses of rescue medication at the study center. Patients were permitted to take rescue medication at any time but were encouraged to wait at least 1 hour after taking study medication to allow time for the medication to exert its effect. Patients who took rescue medication remained at the study site for the full duration of the study and continued to perform assessments.
At baseline, patients rated their pain severity using a categorical and a numerical pain severity rating (PSR) scale. The categorical PSR was a 4-point scale (none, mild, moderate, severe), with each category assigned a value from 0-3, respectively. The achievement of moderate pain at baseline was confirmed by a score of >50 mm on a 100-mm visual analog pain scale. Additionally, pain was assessed using an 11-point numerical PSR (0-10; 0=none to 10=worst possible pain).
Following the administration of study medication, patients were followed and evaluated on site for 12 hours. During that time, study participants provided self-ratings of pain severity (on both categorical and numerical PSR scales as described above) and pain relief: using a 5-point categorical pain relief rating (PRR) scale (0=none, 1=a little, 2=some, 3=a lot, and 4=complete) at 0.25, 0.5, 1, 1.5, 2, 3, 4, 5, 6, 7, 8, 9, 10, 11, and 12 hours post-treatment, after taking study medication, immediately before taking rescue medication, or at time of study withdrawal (if either occurred).
Additional patient assessments included time to first perceptible relief (TFPR) and time to meaningful pain relief (TMPR) using the double-stopwatch method, in which the first stopwatch was pressed by the patient when pain relief was first perceived, and the second when that relief became meaningful. Duration of pain relief was measured by the time to treatment failure (i.e., the time of first dose of rescue medication or dropout due to lack of efficacy). At 12 hours or immediately before taking rescue medication for the first time, patients also provided a Patient Global Evaluation based on a 6-point categorical scale ranging from 0 (very poor) to 5 (excellent).
The primary endpoint was the time-weighted sum of pain relief and pain intensity difference (PID) scores from baseline (time 0) through 8 hours (SPRID[4]0-8) after dosing based on PRR and categorical PSR. […]

SMILES strings stand for the structures.

The text below walks through data of patent US11918693B2, “Ibuprofen and acetaminophen tablet” (GlaxoSmithKline Consumer Healthcare Holdings (US) LLC, priority 2019, dated 2024).

For `CC(C)Cc1ccc(C(C)C(=O)O)cc1` (centres unmarked) [IBU, 2-(4-isobutylphenyl) propionic acid], the “Alveolar osteitis, treatment-emergent adverse event, %” value is reported as “(2.2) %”; the “Dizziness, treatment-emergent adverse event, %” value is on record as “(7.6) %”; the “Feeling hot, treatment-emergent adverse event, %” value was “(4.3) %”; the “Median time to first perceptible relief (TFPR)” value is reported as 24.9 min. Moreover, the “Median time to meaningful relief (TMPR)” value is 56.2 min; the “Median time to treatment failure (duration of relief)” value worked out at 10.4 h; the “Nausea, treatment-emergent adverse event, %” value is given as “(23.9) %”; the “TOTPAR0-2, mean (time-weighted sum of pain relief rating scores over 0-2 hours)” value came to 4.0. Moreover, the “Tension headache, treatment-emergent adverse event, %” value is on record as “(4.3) %”; the “Tremor, treatment-emergent adverse event, %” value was “(2.2) %”; the “Vomiting, treatment-emergent adverse event, %” value is “(15.2) %”. For the same compound, the “TOTPAR0-6, mean” value (0-6 hours) turned out to be 14.3. Besides, the “TOTPAR0-8, mean” value (0-8 hours) is 18.4. In addition, the “TOTPAR0-12, mean” value (0-12 hours) stood at 23.9.
